Literature values as cited in patent US8323685B2, “Methods of processing compositions containing microparticles” (Baxter International Inc., priority 2008, dated 2012).

system: rats; settings: oral, all at once (acute toxicity), minimal amount reported in the literature

Row | SMILES | LD50 [g/kg body weight]
1 | COCCOC [dimethoxyethane] | 10
2 | CCOCC [ether] | 1.2
3 | CCC(C)=O [2-butanone (MEK), 2-butanone] | 2.7
4 | CC(C)=O [Acetone] | 5.8

system: not given; settings: ambient temperature such as 20-25° C.

Row | SMILES | Solubility (Sol) of water in the liquid [g/100 g]
5 | CC(C)OC(C)C [diisopropyl ether] | 0.2
6 | CCOCC [ether] | 7.5
